Data as given in ChEMBL document CHEMBL1158513, “Identification and SAR of novel pyrrolo[1,2-a]pyrazin-1(2H)-one derivatives as inhibitors of poly(ADP-ribose) polymerase-1 (PARP-1)” (Bioorg Med Chem Lett, 2010).
“And” between values parts separate entries of the source, which are not always exact repeats. Equal entries are not always repeated.

Columns and labels:
[1] = test system: HeLa; assay: Antiproliferative activity against BRCA1-proficient human HeLa cells after 7 days by celltiter-blue assay; type: functional; conditions: 168 h
[2] = test system: HeLa; assay: Antiproliferative activity against BRCA1-deficient human HeLa cells after 7 days by celltiter-blue assay; type: functional; conditions: 168 h
[3] = target: Poly [ADP-ribose] polymerase 1 (Homo sapiens, UniProt P09874); assay: Inhibition of PARP1 by topcount microplate scintillation counter
[4] = Clearance in rat; type: ADME, organism-based; conditions: in vivo
[5] = Intrinsic clearance in rat liver microsomes; type: ADME, Microsome
[6] = target: CYP3A4 (Homo sapiens, UniProt P08684); assay: Inhibition of CYP3A4 at 10 uM; type: ADME
[7] = test system: HeLa; assay: Selectivity ratio of CC50 for BRCA1-proficient human HeLa to CC50 for BRCA1-deficient human HeLa cells; type: functional
[8] = Lipophilicity, log D of the compound; type: physicochemical; conditions: octanol/water

Sequence of Poly [ADP-ribose] polymerase 1 (P09874 whole entry): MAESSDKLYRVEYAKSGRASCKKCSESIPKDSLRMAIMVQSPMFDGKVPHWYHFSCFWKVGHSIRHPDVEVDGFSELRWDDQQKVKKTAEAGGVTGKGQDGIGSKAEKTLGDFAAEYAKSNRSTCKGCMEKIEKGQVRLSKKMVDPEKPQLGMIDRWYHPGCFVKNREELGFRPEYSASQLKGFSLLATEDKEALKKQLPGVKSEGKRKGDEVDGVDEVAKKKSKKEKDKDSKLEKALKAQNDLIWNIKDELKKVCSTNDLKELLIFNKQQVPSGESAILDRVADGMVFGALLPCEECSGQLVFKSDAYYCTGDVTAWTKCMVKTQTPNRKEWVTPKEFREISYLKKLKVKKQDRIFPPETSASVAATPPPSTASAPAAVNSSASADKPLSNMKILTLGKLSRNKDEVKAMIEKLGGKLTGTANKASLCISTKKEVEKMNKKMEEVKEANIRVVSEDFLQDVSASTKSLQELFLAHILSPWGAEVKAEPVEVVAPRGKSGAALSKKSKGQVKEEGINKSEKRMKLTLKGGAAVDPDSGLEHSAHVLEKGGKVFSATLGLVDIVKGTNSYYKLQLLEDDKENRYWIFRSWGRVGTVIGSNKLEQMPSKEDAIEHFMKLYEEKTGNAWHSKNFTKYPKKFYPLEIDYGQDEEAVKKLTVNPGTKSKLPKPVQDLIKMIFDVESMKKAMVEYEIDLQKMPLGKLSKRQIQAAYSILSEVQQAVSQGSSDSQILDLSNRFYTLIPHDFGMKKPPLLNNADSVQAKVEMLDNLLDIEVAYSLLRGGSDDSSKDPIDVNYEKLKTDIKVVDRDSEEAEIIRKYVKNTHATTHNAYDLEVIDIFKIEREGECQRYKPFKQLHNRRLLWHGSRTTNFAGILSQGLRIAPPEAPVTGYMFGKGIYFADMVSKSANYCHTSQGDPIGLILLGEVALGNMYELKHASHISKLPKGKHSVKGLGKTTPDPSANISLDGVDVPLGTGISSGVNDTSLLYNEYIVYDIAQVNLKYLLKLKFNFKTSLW
Sequence of CYP3A4 (P08684 whole entry): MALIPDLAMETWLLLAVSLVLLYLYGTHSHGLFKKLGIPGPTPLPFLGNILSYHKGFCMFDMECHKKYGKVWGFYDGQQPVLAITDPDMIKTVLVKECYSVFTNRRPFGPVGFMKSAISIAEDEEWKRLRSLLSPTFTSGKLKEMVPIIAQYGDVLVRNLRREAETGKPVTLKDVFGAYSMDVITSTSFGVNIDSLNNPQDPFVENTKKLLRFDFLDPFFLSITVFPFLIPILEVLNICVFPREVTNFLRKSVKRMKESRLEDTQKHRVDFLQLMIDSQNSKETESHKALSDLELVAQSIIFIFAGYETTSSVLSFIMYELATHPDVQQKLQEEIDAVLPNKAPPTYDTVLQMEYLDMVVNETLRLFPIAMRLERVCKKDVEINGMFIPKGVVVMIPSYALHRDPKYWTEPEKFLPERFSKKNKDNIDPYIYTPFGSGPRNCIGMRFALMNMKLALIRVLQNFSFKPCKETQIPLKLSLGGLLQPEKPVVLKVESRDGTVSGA

Compound | IC50 [3] [nM] | logD [8] | CC50 [1] [nM] | CC50 [2] [nM] | clearance [4] [mL/min/kg] | microsomal CLint [5] [µL/min/mg] | inhibition at 10 µM [6] [%] | Selectivity ratio [7]
O=C(c1cc(Cc2c[nH]c(=O)c3cc(Cl)c(Cl)n23)ccc1F)N1CCN(c2ncccn2)CC1 | 3.1 | – | 2800 | 130 | – | – | – | –
O=C(c1cc(Cc2c[nH]c(=O)c3cc(Cl)c(Cl)n23)ccc1F)N1CCC(N2CCCC2)CC1 | 5.4 | – | > 5000 | 120 | 94 | 135 | 30 | –
O=C(c1cc(Cc2c[nH]c(=O)c3cc(Cl)c(Cl)n23)ccc1F)N1CCC(N2CCC2)CC1 | 1 | – | > 10000 | 180 | – | – | – | –
O=C(c1cc(Cc2c[nH]c(=O)c3cc(Cl)c(Cl)n23)ccc1F)N1CCCCC1 | 200 | – | – | – | – | – | – | –
O=C(c1cc(Cc2c[nH]c(=O)c3cc(Cl)c(Cl)n23)ccc1F)N1CCC2(CCN2)CC1 | 8.2 | – | > 5000 | 2300 | – | – | – | –
O=C(c1cc(Cc2c[nH]c(=O)c3cc(Cl)c(Cl)n23)ccc1F)N1CCN(C2CCCCC2)CC1 | 14 | – | > 5000 | 970 | – | – | – | –
CCN(CC)C1CCN(C(=O)c2cc(Cc3c[nH]c(=O)c4cc(Cl)c(Cl)n34)ccc2F)CC1 | 22 | – | > 5000 | 1100 | – | – | – | –
O=C(c1cc(Cc2c[nH]c(=O)c3cc(Cl)c(Cl)n23)ccc1F)N1CCN(c2cc3ccccc3cn2)CC1 | 1.8 | – | 1200 | 320 | – | – | – | –
CN1CCN(C(=O)c2cc(Cc3c[nH]c(=O)c4cc(Cl)c(Cl)n34)ccc2F)CC1 | 41 | – | – | – | – | – | – | –
N#Cc1cccnc1N1CCN(C(=O)c2cc(Cc3c[nH]c(=O)c4cc(Cl)c(Cl)n34)ccc2F)CC1 | 0.7 | – | 1600 | 62 | – | – | – | 25
COc1cccnc1N1CCN(C(=O)c2cc(Cc3c[nH]c(=O)c4cc(Cl)c(Cl)n34)ccc2F)CC1 | 15 | – | > 5000 | 2700 | – | – | – | –
O=C(c1cc(Cc2c[nH]c(=O)c3cc(Cl)c(Cl)n23)ccc1F)N1CCN(c2ccccc2F)CC1 | 24 | – | > 10000 | > 10000 | – | – | – | –
CC(=O)N1CCCN(C(=O)c2cc(Cc3c[nH]c(=O)c4cc(Cl)c(Cl)n34)ccc2F)CC1 | 19 | – | > 20000 | 5700 | – | – | – | –
CC(C)(C)C(=O)N1CCN(C(=O)c2cc(Cc3c[nH]c(=O)c4cc(Cl)c(Cl)n34)ccc2F)CC1 | 1 | – | > 5000 | 340 | – | – | – | –
O=C(c1cc(Cc2c[nH]c(=O)c3cc(Cl)c(Cl)n23)ccc1F)N1CCN(C(=O)C2CCCC2)CC1 | 3.7 | – | > 5000 | 270 | – | – | – | –
O=C(c1cc(Cc2c[nH]c(=O)c3cc(Cl)c(Cl)n23)ccc1F)N1CCOCC1 | 59 | – | – | – | – | – | – | –
CN(C)CCN1CCN(C(=O)c2cc(Cc3c[nH]c(=O)c4cc(Cl)c(Cl)n34)ccc2F)CC1 | 18 | – | > 10000 | > 10000 | – | – | – | –
O=C(c1cc(Cc2c[nH]c(=O)c3cc(Cl)c(Cl)n23)ccc1F)N1CCC2(CCCCN2)CC1 | 6.2 | – | > 5000 | 220 | – | – | – | –
N#Cc1ccc(N2CCN(C(=O)c3cc(Cc4c[nH]c(=O)c5cc(Cl)c(Cl)n45)ccc3F)CC2)nc1 | 14 | – | 4200 | 200 | – | – | – | –
CNC1CCN(C(=O)c2cc(Cc3c[nH]c(=O)c4cc(Cl)c(Cl)n34)ccc2F)CC1 | 2.3 | – | > 5000 | 400 | – | – | – | –
O=C(c1cc(Cc2c[nH]c(=O)c3cc(Cl)cn23)ccc1F)N1CCCNCC1 | 1 | 0.58 | > 20000 | 2500 | – | – | – | –
O=C(c1cc(Cc2c[nH]c(=O)c3cc(Cl)c(Cl)n23)ccc1F)N1CCC2(CCCN2)CC1 | – | – | > 10000 | 48 | – | – | – | 50

Continued, in another order:

IC50 [3] [nM] | logD [8] | Compound | CC50 [1] [nM] | CC50 [2] [nM] | clearance [4] [mL/min/kg] | microsomal CLint [5] [µL/min/mg] | inhibition at 10 µM [6] [%] | Selectivity ratio [7]
13 | – | CCCCN1CCN(C(=O)c2cc(Cc3c[nH]c(=O)c4cc(Cl)c(Cl)n34)ccc2F)CC1 | > 10000 | 1600 | – | – | – | –
7.2 | – | CN(C)C(=O)N1CCN(C(=O)c2cc(Cc3c[nH]c(=O)c4cc(Cl)c(Cl)n34)ccc2F)CC1 | > 10000 | 670 | – | – | – | –
2.6 | – | CN(C)C1CCN(C(=O)c2cc(Cc3c[nH]c(=O)c4cc(Cl)c(Cl)n34)ccc2F)CC1 | > 10000 | 1600 | – | – | – | –
9 | – | O=C(c1cc(Cc2c[nH]c(=O)c3cc(Cl)c(Cl)n23)ccc1F)N1CCC2(CC1)NCNC2=O | > 5000 | > 2500 | – | – | – | –
2.1 | – | CNC(C)(C)C(=O)N1CCN(C(=O)c2cc(Cc3c[nH]c(=O)c4cc(Cl)c(Cl)n34)ccc2F)CC1 | > 5000 | 53 | > 200 | – | – | 100 and 50
2.3 | – | O=C(c1cc(Cc2c[nH]c(=O)c3cc(Cl)c(Cl)n23)ccc1F)N1CCNCC1 | > 20000 | 180 | – | – | – | –
13 | – | O=C(c1cc(Cc2c[nH]c(=O)c3cc(Cl)c(Cl)n23)ccc1F)N1CCN(CCO)CC1 | > 10000 | > 5000 | – | – | – | –
2.1 | – | CC(C)C(=O)N1CCN(C(=O)c2cc(Cc3c[nH]c(=O)c4cc(Cl)c(Cl)n34)ccc2F)CC1 | > 5000 | 150 | – | – | – | 30
1.4 | – | O=C(c1cc(Cc2c[nH]c(=O)c3cc(Cl)c(Cl)n23)ccc1F)N1CCN(c2ncnc3ccccc23)CC1 | 920 | 60 | – | – | – | –
5 | – | CN1CCCN(C(=O)c2cc(Cc3c[nH]c(=O)c4cc(Cl)c(Cl)n34)ccc2F)CC1 | > 20000 | 1100 | – | – | – | –
2.6 | 0.91 | O=C(c1cc(Cc2c[nH]c(=O)c3cc(Cl)c(Cl)n23)ccc1F)N1CCCNCC1 | > 20000 | 170 | – | – | – | –
2.4 | – | CN(C)S(=O)(=O)N1CCN(C(=O)c2cc(Cc3c[nH]c(=O)c4cc(Cl)c(Cl)n34)ccc2F)CC1 | > 10000 | 910 | – | – | – | –
2.5 | – | CN(C)CC(=O)N1CCN(C(=O)c2cc(Cc3c[nH]c(=O)c4cc(Cl)c(Cl)n34)ccc2F)CC1 | > 10000 | 3500 | – | – | – | –
5.1 | – | CN(C)C(C)(C)C(=O)N1CCN(C(=O)c2cc(Cc3c[nH]c(=O)c4cc(Cl)c(Cl)n34)ccc2F)CC1 | > 5000 | 200 | – | – | – | –
1.8 | -0.89 | O=C(c1cc(Cc2c[nH]c(=O)c3cccn23)ccc1F)N1CCCNCC1 | > 20000 | > 20000 | – | – | – | –
9 | – | CCS(=O)(=O)N1CCN(C(=O)c2cc(Cc3c[nH]c(=O)c4cc(Cl)c(Cl)n34)ccc2F)CC1 | > 5000 | 3000 | – | – | – | –
2.4 | – | O=C(c1ccccn1)N1CCN(C(=O)c2cc(Cc3c[nH]c(=O)c4cc(Cl)c(Cl)n34)ccc2F)CC1 | > 5000 | 150 | – | – | – | 30
4 | – | O=C(c1cc(Cc2c[nH]c(=O)c3c(Cl)cc(Cl)n23)ccc1F)N1CCCNCC1 | > 20000 | 18000 | – | – | – | –
1.6 | – | O=C(c1cc(Cc2c[nH]c(=O)c3c(Cl)c(Cl)cn23)ccc1F)N1CCCNCC1 | > 20000 | 220 | – | – | – | –
14 | – | CC(C)CN1CCN(C(=O)c2cc(Cc3c[nH]c(=O)c4cc(Cl)c(Cl)n34)ccc2F)CC1 | > 10000 | 250 | – | – | – | –
6.3 | – | CC(=O)N1CCN(C(=O)c2cc(Cc3c[nH]c(=O)c4cc(Cl)c(Cl)n34)ccc2F)CC1 | > 10000 | 700 | – | – | – | –
1 | – | O=C(c1cc(Cc2c[nH]c(=O)c3cc(Cl)c(Cl)n23)ccc1F)N1CCN(c2ncc3ccccc3n2)CC1 | 770 | 190 | – | – | – | –
12 | – | O=C(c1cc(Cc2c[nH]c(=O)c3cc(Cl)c(Cl)n23)ccc1F)N1CCN(c2cccnc2)CC1 | > 5000 | > 5000 | – | – | – | 20
3.1 | – | O=C(c1ncc[nH]1)N1CCN(C(=O)c2cc(Cc3c[nH]c(=O)c4cc(Cl)c(Cl)n34)ccc2F)CC1 | > 5000 | 500 | – | – | – | –
2 | – | CN(C)C(=O)C(=O)N1CCN(C(=O)c2cc(Cc3c[nH]c(=O)c4cc(Cl)c(Cl)n34)ccc2F)CC1 | > 10000 | 1800 | – | – | – | –
2.8 | – | O=C(c1cc(Cc2c[nH]c(=O)c3cc(Cl)c(Cl)n23)ccc1F)N1CCN(c2ccccn2)CC1 | > 10000 | 430 | – | – | – | –
7.1 | – | NC1CCN(C(=O)c2cc(Cc3c[nH]c(=O)c4cc(Cl)c(Cl)n34)ccc2F)CC1 | > 10000 | 3800 | – | – | – | –
3.2 | – | CCC(=O)N1CCN(C(=O)c2cc(Cc3c[nH]c(=O)c4cc(Cl)c(Cl)n34)ccc2F)CC1 | > 5000 | 1200 | – | – | – | –
1.6 | – | Cc1cc2c(=O)[nH]cc(Cc3ccc(F)c(C(=O)N4CCCNCC4)c3)n2c1 | > 20000 | 3400 | – | – | – | –
